The results in this text go back to patent US20240279184A1, “HETEROAROMATIC ANALOGUES OF 3-BENZYLMENADIONE DERIVATIVES AND PROCESSES FOR THEIR PREPARATION” (CENTRE NATIONAL DE LA RECHERCHE SCIENTIFIQUE, priority 2021, published 2024).

Assay [1] relates to rat L6 myoblast cell line. Description: primary screening on the rat L6 myoblast cell line (specificity/cytotoxicity). Type of assay: cell-based. The note with it: first primary screening.
Assay [2] deals with Plasmodium falciparum NF54 strain. Description: primary screening of antimalarial activity, Plasmodium falciparum NF54 strain. The format is cell-based. The conditions noted are these: for antimalarial activity compared with the regioisomer (potency and specificity): NF54 strain versus rat L6 myoblasts, MR00418 vs MR00397, MR00419 vs MR00407; for IC50: Plasmodium falciparum NF54 strain, first primary screening.

What is called IC50 is the concentration needed to halve the response being measured. Lower therefore signals greater potency in that assay.

As to `CC1=C(Cc2ccc(C(F)(F)F)nc2)C(=O)c2ccccc2C1=O` [MRO0418, 2-methyl-3-((6-(trifluoromethyl)pyridin-3-yl)methyl) naphthalene-1,4-dione], half-maximal inhibition in assay [1] (IC50) was put at 179 µM. Further, in assay [2], the “antimalarial activity compared with the regioisomer (potency and specificity)” value was “more potent and specific antimalarial activities than the regioisomers”; the IC50 was found to be 0.006 µM.
Compound `CC1=C(Cc2cnc(C(F)(F)F)nc2)C(=O)c2ccccc2C1=O` [MRO0419, 2-methyl-3-((2-(trifluoromethyl)pyrimidin-5-yl)methyl) naphthalene-1,4-dione] showed an IC50 in assay [1] of 48.3 µM. Further, in assay [2], the “antimalarial activity compared with the regioisomer (potency and specificity)” value is “more potent and specific antimalarial activities than the regioisomers”; half-maximal inhibition (IC50) was put at 0.065 µM.
